# Experimental data as given in US20230274811A1, “METHODS OF MAKING PROSTATE CANCER TREATMENT DECISIONS” (Progenics Pharmaceuticals, Inc., priority 2020, published 2023).
# Test system: biochemically recurrent prostate cancer
# Assay: CONDOR: 18F-DCFPyL PET/CT correct localization rate, detection rate and PPV vs composite standard of truth
# Format: in vivo, men
# Source text: 1. Correct Localization Rate (CLR), defined as percentage of subjects with a one-to-one correspondence between localization of at least one lesion identified on ^18F-DCFPyL PET/CT imaging and the composite truth standard, defined as either evaluable histopathology, informative correlative imaging, or PSA response after radiation therapy.
# Men ≥18 years of age with a rising PSA after definitive PCa therapy and negative or equivocal imaging were enrolled. […] The primary endpoint of this study was the correct localization rate (CLR). CLR is defined as the percentage of patients with a one-to-one correspondence between localization of at least one lesion identified by ^18F-DCFPyL PET/CT and a composite standard of truth (SOT). SOT was determined by two central readers and included either histopathology or another standard imaging modality (i.e., fluciclovine-PET/CT, CT/MRI, bone scan) or alternatively, by a post-treatment PSA change for irradiated lesions.
# Methods: Men ≥18 years—with rising PSA after definitive therapy and negative or equivocal standard of care imaging (e.g., CT/MRI, bone scintigraphy) were enrolled. A single 9 mCi (333 MBq)±20% dose of PyL was injected, followed by PET/CT 1-2 hours later. Primary endpoint was correct localization rate (CLR), defined as percentage of pts with a 1:1 correspondence between at least one lesion identified by PyL-PET/CT and the composite standard of truth: pathology, correlative imaging, or PSA response. […] The secondary endpoint, impact of PyL-PET/CT on clinical management of pts was based on the treating physician's documented clinical plans before and after PyL-PET/CT.
# Men with a PSA ≥0.2 ng/mL after surgery or ≥2 ng/mL above the nadir after radiation therapy were eligible for enrollment. The primary endpoint was the correct localization rate (CLR) defined as positive predictive value with an additional requirement of anatomical lesion colocalization between ^18F-DCFPyL-PET/CT and a composite standard of truth (SOT). The SOT consisted of, in descending priority: 1) histopathology, 2) correlative imaging findings determined by two central readers, or 3) post-radiation PSA response. […] The impact of ^18F-DCFPyL-PET/CT as defined by change in management intent, and safety were evaluated as secondary endpoints.
# Patients voided prior to imaging, and PET and non-contrast CT images were acquired from the mid-thigh through the skull vertex. All ^18F-DCFPyL-PET/CT scans were submitted to the central imaging core laboratory for assessment. Patients with positive ^18F-DCFPyL-PET/CT scans based on local interpretation were scheduled for post-^18F-DCFPyL-PET/CT follow-up to verify suspected lesion(s) based on a composite standard of truth (SOT). (FIG. 16)
# Because of the expected absence of an amenable lesion for histologic verification in all patients, a composite SOT was employed based on assessment performed or initiated within 60 days following ^18F-DCFPyL-PET/CT. These reference standards were defined (in descending priority) as (1) evaluable histopathology results from prostatectomy, salvage pelvic lymph node dissection or biopsy; (2) imaging findings using ^18F-fluciclovine or ^11C-choline PET, or focused MRI or CT; or (3) if neither of the above was available or informative, confirmed PSA response up to 9 months post-radiation initiation (with no concomitant ADT) of all PET-positive foci. PSA response was defined as PSA decline by ≥50% from baseline that was confirmed on repeat measurement within 4 weeks, based on central laboratory results.
# A central imaging core laboratory was employed to independently manage image handling, reader training, reader sessions and data collection. […] The readers had no access to any clinical information, including PSA values or other imaging available for a patient. […]
# [1] = SOT Correlative imaging n=100, Reader 1
# [2] = SOT Correlative imaging n=100, Reader 2
compound,measurement,setting,value
"O=C(O)CC[C@H](NC(=O)N[C@@H](CCCCNC(=O)c1ccc([18F])nc1)C(=O)O)C(=O)O [18F-DCFPyL, 2-(3-{1-carboxy-5-[(6-[^18F]fluoro-pyridine-3-carbonyl)-amino]-pentyl}ureido)-pentanedioic acid]","pts with PSMA-avid lesion(s), local radiology assessment",142/208,69.3%
same,PPV by anatomic region,"Extra-pelvic, Reader 1 (CONDOR Reader 4 in Table 17)",33 (67.3) %
same,PPV by anatomic region,"Extra-pelvic, Reader 1 (CONDOR Reader 4 in Table 17), listed as PyLARIFY",67%
same,PPV by anatomic region,"Extra-pelvic, Reader 2 (CONDOR Reader 5 in Table 17)",31 (67.4) %
same,PPV by anatomic region,"Extra-pelvic, Reader 2 (CONDOR Reader 5 in Table 17), listed as PyLARIFY",67%
same,PPV by anatomic region,"Extra-pelvic, Reader 3 (CONDOR Reader 6 in Table 17)",30 (69.8) %
same,PPV by anatomic region,"Extra-pelvic, Reader 3 (CONDOR Reader 6 in Table 17), listed as PyLARIFY",70%
same,CLR by baseline PSA,"PSA 0.5-<1.0 ng/mL, Reader 1",12 (75.0) %
same,Detection rate by baseline PSA,"PSA 0.5-<1.0 ng/mL, Reader 1",21 (56.8) %
same,CLR by baseline PSA,"PSA 0.5-<1.0 ng/mL, Reader 2",10 (76.9) %
same,Detection rate by baseline PSA,"PSA 0.5-<1.0 ng/mL, Reader 2",45.9%
same,CLR by baseline PSA,"PSA 0.5-<1.0 ng/mL, Reader 3",11 (73.3) %
same,Detection rate by baseline PSA,"PSA 0.5-<1.0 ng/mL, Reader 3",19 (51.4) %
same,CLR by baseline PSA,"PSA 1.0-<2.0 ng/mL, Reader 1",17 (85.0) %
same,Detection rate by baseline PSA,"PSA 1.0-<2.0 ng/mL, Reader 1",24 (72.7) %
same,CLR by baseline PSA,"PSA 1.0-<2.0 ng/mL, Reader 2",14 (77.8) %
same,Detection rate by baseline PSA,"PSA 1.0-<2.0 ng/mL, Reader 2",22 (66.7) %
same,CLR by baseline PSA,"PSA 1.0-<2.0 ng/mL, Reader 3",15 (83.3) %
same,Detection rate by baseline PSA,"PSA 1.0-<2.0 ng/mL, Reader 3",19 (57.6) %
same,CLR by baseline PSA,"PSA 2.0 < 5.0 ng/mL, Reader 1",21 (91.3) %
same,Detection rate by baseline PSA,"PSA 2.0 < 5.0 ng/mL, Reader 1",28 (84.8) %
same,CLR by baseline PSA,"PSA 2.0 < 5.0 ng/mL, Reader 2",24 (92.3) %
same,Detection rate by baseline PSA,"PSA 2.0 < 5.0 ng/mL, Reader 2",29 (87.9) %
same,CLR by baseline PSA,"PSA 2.0 < 5.0 ng/mL, Reader 3",20 (90.9) %
same,Detection rate by baseline PSA,"PSA 2.0 < 5.0 ng/mL, Reader 3",27 (81.8) %
same,CLR by baseline PSA,"PSA <0.5 ng/mL, Reader 1",11 (73.3) %
same,Detection rate by baseline PSA,"PSA <0.5 ng/mL, Reader 1",29 (42.0) %
same,CLR by baseline PSA,"PSA <0.5 ng/mL, Reader 2",76.9%
same,Detection rate by baseline PSA,"PSA <0.5 ng/mL, Reader 2",23 (33.3) %
same,CLR by baseline PSA,"PSA <0.5 ng/mL, Reader 3",11 (73.3) %
same,Detection rate by baseline PSA,"PSA <0.5 ng/mL, Reader 3",25 (36.2) %
same,CLR by baseline PSA,"PSA ≥5 ng/mL, Reader 1",27 (96.4) %
same,Detection rate by baseline PSA,"PSA ≥5 ng/mL, Reader 1",29 (96.7) %
same,CLR by baseline PSA,"PSA ≥5 ng/mL, Reader 2",28 (96.6) %
same,Detection rate by baseline PSA,"PSA ≥5 ng/mL, Reader 2",29 (96.7) %
same,CLR by baseline PSA,"PSA ≥5 ng/mL, Reader 3",26 (96.3) %
same,Detection rate by baseline PSA,"PSA ≥5 ng/mL, Reader 3",27 (90.0) %
same,PPV by anatomic region,"Pelvic, Reader 1 (CONDOR Reader 4 in Table 17)",41 (67.2) %
same,PPV by anatomic region,"Pelvic, Reader 1 (CONDOR Reader 4 in Table 17), listed as PyLARIFY",67%
same,PPV by anatomic region,"Pelvic, Reader 2 (CONDOR Reader 5 in Table 17)",40 (72.7) %
same,PPV by anatomic region,"Pelvic, Reader 2 (CONDOR Reader 5 in Table 17), listed as PyLARIFY",73%
same,PPV by anatomic region,"Pelvic, Reader 3 (CONDOR Reader 6 in Table 17)",39 (70.9) %
same,PPV by anatomic region,"Pelvic, Reader 3 (CONDOR Reader 6 in Table 17), listed as PyLARIFY",71%
same,PPV by anatomic region,"Prostatic (prostate bed), Reader 1 (CONDOR Reader 4 in Table 17), listed as PyLARIFY",80%
same,PPV by anatomic region,"Prostatic (prostate bed), Reader 2 (CONDOR Reader 5 in Table 17)",30 (83.3) %
same,PPV by anatomic region,"Prostatic (prostate bed), Reader 2 (CONDOR Reader 5 in Table 17), listed as PyLARIFY",83%
same,PPV by anatomic region,"Prostatic (prostate bed), Reader 3 (CONDOR Reader 6 in Table 17)",27 (75.0) %
same,PPV by anatomic region,"Prostatic (prostate bed), Reader 3 (CONDOR Reader 6 in Table 17), listed as PyLARIFY",75%
same,CLR (TP/TP + FP),"SOT CT n=6, Reader 1",(80.0%)
same,Negative PyL Scan,"SOT CT n=6, Reader 1",(16.7%)
same,Positive PyL Scan,"SOT CT n=6, Reader 1",(83.3%)
same,CLR (TP/TP + FP),"SOT CT n=6, Reader 2",(100.0%)
same,Negative PyL Scan,"SOT CT n=6, Reader 2",(16.7%)
same,Positive PyL Scan,"SOT CT n=6, Reader 2",(83.3%)
same,CLR (TP/TP + FP),"SOT CT n=6, Reader 3",(80.0%)
same,Negative PyL Scan,"SOT CT n=6, Reader 3",(16.7%)
same,Positive PyL Scan,"SOT CT n=6, Reader 3",(83.3%)
same,CLR (TP/TP + FP),[1],(88.0%)
same,Negative PyL Scan,[1],(18.0%)
same,PPV (TP/TP + FP),[1],(89.0%)
same,Positive PyL Scan,[1],(82.0%)
same,CLR (TP/TP + FP),[2],(88.6%)
same,Negative PyL Scan,[2],(24.0%)
same,PPV (TP/TP + FP),[2],(89.5%)
same,Positive PyL Scan,[2],(76.0%)
